According to paper doi:10.1101/2021.12.22.473926v1 (biorxiv, 2021):

Molecular target: cruzain (Trypanosoma cruzi, UniProt P25779)
Experiment: fluorimetric Z-FR-AMC cleavage, initial rates
Format: biochemical

cruzain, sequence (P25779 123-337): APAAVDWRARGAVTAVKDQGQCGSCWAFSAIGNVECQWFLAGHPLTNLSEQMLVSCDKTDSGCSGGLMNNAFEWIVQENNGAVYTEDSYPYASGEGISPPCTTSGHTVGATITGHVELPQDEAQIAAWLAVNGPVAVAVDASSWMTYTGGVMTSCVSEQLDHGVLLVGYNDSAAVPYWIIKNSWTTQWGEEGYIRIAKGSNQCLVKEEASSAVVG

CC(C)C[C@H](NC(=O)[C@H]1O[C@@H]1C(=O)O)C(=O)NCCCCN=C(N)N [E-64, trans-Epoxysuccinyl-L-leucylamido(4-guanidino)butane, reference compound]
IC50: 29.7 ± 9.16 nM
